Measured values taken from patent US9133231B2, “Compounds for treating bacterial infections” (Yissum Research Development Company of the Hebrew …, priority 2010, dated 2015).

Columns and labels:
Assay type in all cases: cell-based
[1] = system: B. subtilis; experiment: Mature spore formation after induced sporulation (heat shock, CFU count)
Procedure: Cells were grown to an OD600 of 0.5. They were then washed with synthetic medium on a membrane filter and suspended in synthetic medium lacking amino acids in order to induce them to sporulate in the presence and the absence of inhibitors. Sporulation was monitored by fluorescence microscopy.
In order to further evaluate the effect of compounds A2 on sporulation, wild type bacteria were induced to sporulate in the presence of different concentrations (from 200 to 1.8 mM) of compound A2 and the process was monitored using fluorescence microscopy. With the aim of learning about the fate of the spores formed in the previously described cultures, an aliquot from the cell culture was taken and subjected to heat treatment (heat shock). The treatment included exposure of the cultures to 80° C. for 15 minutes and further plating on LB plates. After incubating the plates for 15 hours at 37° C., the colony forming units (CFUs) were quantified and the percent of mature spore formation was calculated (FIG. 2B-C).
The influence of the timing of addition of A2 was evaluated. Bacteria were induced to sporulate and A2 (1.8 mM) was added to the cultures every two hours (at T=0, T=2, T=4 and T=6). After growing overnight the cultures were heated and plated on LB plates.

[2] = system: B. subtilis; experiment: Growth and survival of B. subtilis growing in LB medium (CFU); conditions: 1.8 mM added at OD600 of 0.2, LB medium, 37° C.; FIG. 3
Procedure: The effect of A2 on growth and survival of B. subtilis growing in LB medium was then evaluated. Bacteria were grown overnight at 23° C. and diluted to an OD600 of 0.05. Subsequently, bacteria were further grown at 37° C. and A2 (1.8 mM) was added at an OD600 of 0.2. Bacterial growth was then continuously monitored by measuring the turbidity of the medium at 600 nm (OD600). Samples were taken and plated on LB plates. The plates were incubated at 37° C. for 15 hours. Colony forming units (CFU) were counted and compared to the untreated culture.

[3] = system: B. subtilis; experiment: Bacterial survival in CH medium (CFU after 24 hours of growth)
Procedure: Bacteria were grown in CH medium and samples were taken and plated on LB plates after 24 hours of growth. The plates were incubated at 37° C. for 15 hours. Colony forming units (CFU) were counted and compared to the untreated culture.
(§1) Cytotoxicity of compound A2 on eukaryotic (A431) and prokaryotic cells (B. Subtilis) was determined by using the methylthiazolyldiphenyl-tetrazolium bromide (MTT) assay. Bacteria were grown in CH medium and samples were taken and plated on LB plates after 24 hours of growth. The plates were incubated at 37° C. for 15 hours. Colony forming units (CFU) were counted and compared to the untreated culture. Viable bacterial cells are counted as CFU/mL: colony forming units per milliliter. Each CFU is equivalent to viable cell.

[4] = system: A431 Epidermoid carcinoma cells; experiment: MTT cytotoxicity assay on A431 cells; conditions: 72 hours incubation, up to 10 different concentrations, FIG. 8
Procedure: as §1
In a standard procedure, the cell line (A431: epidermoid carcinoma) was incubated for 24 hours in 37° C. and 5% CO2. Subsequently, compound A2 was added to the wells in up to 10 different concentrations. Subsequent to incubation of cells with A2 for an additional 72 hours, the MTT reagent was added.

CC(C)C(=O)Nc1nc2c(ncn2[C@H]2CC(OC(=O)NCC(=O)NCC(=O)O)[C@@H](COC(=O)NCC(=O)NCC(=O)O)O2)c(=O)[nH]1 (stereo partly shown) [Compound A2]
reduction of the formation of mature spores ([1]; 0.22 mM (lowest tested concentration), heat shock 80° C. 15 minutes, CFU, FIG. 2B-C): about 70% | inhibition at 1800 µM ([1]; Bacillus subtilis, 1.8 mM added at T=0, T=2, T=4 or T=6 after inducing sporulation, in every case, FIG. 7, read-out: inhibition of the formation of mature spores): > 80% | inhibition of sporulation ([1]; rest of the tested concentrations (above 0.22 mM, up to 1.8 mM), FIG. 2B-C): 100% | number of CFUs compared to the untreated culture [2]: substantially reduced the number of CFUs | cytotoxicity to B. Subtilis cells (prokaryotic) ([3]; CFU/mL after 24 hours of growth in CH medium, FIG. 8): completely cytotoxic | CFU/mL of the treated cultures ([3]; CH medium, after 24 hours of growth, increasing concentrations, FIG. 6): decreases in a dose dependent fashion | cytotoxicity to A431 cells (eukaryotic) [4]: not to A431 cells
